Data on 2 molecules can be found in paper PMC11009625, “Antibiotic class with potent in vivo activity targeting lipopolysaccharide synthesis in Gram-negative bacteria” (Proceedings of the National Academy of Sciences of the …, 2024).

The structures appear in SMILES notation. Converted amounts (≈) assume the structure as drawn. Like-named read-outs stand apart in the source and are kept apart here.

Test [1] has as its system E. coli EC 106-09 (EN122). The test is described as follows: Neutropenic mouse peritonitis model, E. coli. Conditions: single sc dose, modeled efficacy curves; for ED50: Escherichia coli. It is filed as in vivo, mice. The protocol: PK and safety studies were done the Latvian Institute for Organic Synthesis (Riga, Latvia) and in vivo efficacy studies were done at Statens Serum Institut (Copenhagen, Denmark). Assays were done in accordance with the relevant permits at the respective sites (SI Appendix). For PK studies, plasma samples were taken from mice dosed subcutaneously and the samples were analyzed by UPLC/MS/MS. For in vivo efficacy studies, neutropenic mice were infected intraperitoneally with 10^6 bacteria and treated with subcutaneously with test compounds 1 h after infection. The mice were euthanized 4 h after treatment and serially diluted samples of blood and peritoneal fluid were plated onto blood agar plates. Complete experimental details available in SI Appendix.
Lantmännen) and water. The experimental procedures were performed in accordance with the guidelines of the European Community and local laws and policies (Directive 2010/63/EU), and all of the procedures were approved by Food and Veterinary Service, Riga, Latvia. […]
Bacterial strains and inoculum. E. coli EC 106-09 (EN122) and K. pneumoniae SSI #3010 (EN124) are clinical isolates from Denmark. Bacterial suspensions for inoculation of mice were prepared […]
at room temperature from fresh overnight cultures on 5% blood agar plates produced by SSI diagnostica (Copenhagen Denmark). The inoculum was prepared immediately before inoculation by suspending colonies in sterile 0.9% saline to an optical density of 0.13 at 540 nm, giving a density of 10^8 CFU/ml and further diluted in 0.9% saline to 2 x 10^6 CFU/ml before injecting into the mice. For each experiment, the size of the inoculum was determined by making ten-fold dilutions in 0.9% saline, of which 20 µl was plated on 5% blood agar plates with subsequent counting of colonies after incubation overnight at 35°C in ambient air.
Mice. Outbred female CD-1 mice 26-30 gram (Envigo, Netherlands) were housed at the animal facility at Statens Serum Institut. The temperature was 22 °C +/- 2 °C and the humidity was 55 +/- 10%. The mice were housed in individually ventilated type 3 macrolone cages with bedding from Tapvei. The air changes per hour were approximately 8-12 times (70-73 times per hours inside cages), and light/dark period was in 12-hours interval of 6 a.m.- 6 p.m./6 p.m – 6 a.m.
The mice had ad libitum access to domestic quality drinking water and food Teklad Global diet 2916C-Envigo) and occasionally peanuts and sunflower seeds (Køge Korn A/S). Further, the animals were offered Enviro-Dri nesting material and cardboard houses (Bio-serv).
Mouse peritonitis model. The mice were rendered neutropenic by injecting 0.5 mL cyclophosphamide solution, 200 mg/kg intraperitoneally at 4 days and 100 mg/kg at 1 day prior to inoculation. 1 h before inoculation, mice were treated orally with […] Nurofen (20 mg ibuprofen/mL corresponding to approximately 30 mg/kg) as a pain relief. Inoculation was performed by intraperitoneal injection of 0.5 ml of the bacterial suspension containing log 6
CFU. The mice were treated subcutaneously with 0.25 – 0.30 mL based on weight, in the neck region with a single dose of compound at 1 hour post inoculation. Mice were monitored for clinical signs of discomfort. 4 h after treatment the mice were anesthetized and blood was collected by heart puncture into EDTA tubes and thereafter mice were euthanized by cervical dislocation and peritoneal washes were performed by injecting 2 ml of sterile saline intraperitoneally, followed by gentle massage of the abdomen and opening the peritoneum to collect fluid. Full blood and peritoneal fluids were serially diluted (ten-fold dilutions) and 20 µl was plated on blood agar plates produced at the SSI diagniostica (Copenhagen, Denmark) with subsequent counting of colonies after incubation overnight at 35°C in ambient. All animal experiments were approved by the National Committee of Animal Ethics – Animal Experiment Inspectorate under the Danish Ministry of Justice.
Statistical analyses. […]

Test [2] concerns K. pneumoniae ATCC 13883 (EN0006) and selected mutants. Description: MIC of mutants from frequency of resistance experiments. Type of test: cell-based. The note with it: for MIC EN0006: ATCC 13883 parent; for MIC EN0006 / MIC CH10219: lpxH wild-type; for MIC CH10218: lpxH F128L; for MIC CH10218 / MIC CH10220 / MIC CH10221 / MIC CH10219: selected against EBL-3647; for MIC CH10206 / MIC CH10220: lpxH F141S; for MIC CH10206 / MIC CH10205 / MIC CH10207: selected against EBL-3599; for MIC CH10205 / MIC CH10207 / MIC CH10221: lpxH R80H; for MIC CH10219: ramR A40V. On the procedure: (§1) Minimum inhibitory concentration (MIC) values were determined according to the Clinical Laboratory Standards Institute guidelines. Frequency of resistance was determined by plating ~5 × 10^8 bacterial cells on agar-solidified media plates containing test compound at concentrations corresponding to four times the measured solid-media MIC of the strains. Colonies were counted after 24 h, restreaked onto media containing the same concentration of compound, and the MIC remeasured against the assayed compound. Genomic DNA from isolated clones was sequenced by paired-end sequencing on an Illumina MiSeq device. Complete experimental details available in SI Appendix. […]
(§2) Minimum inhibitory concentration (MIC) determination. Broth microdilution and agar dilution MIC assays were conducted according to CLSI guidelines (M07-2012). Appropriate inoculation suspension density was assessed using a Sensititre Nephelometer with a Sensititre 0.5 […]
(§3) McFarland Standard. […]
Frequency of Resistance. Frequency of resistance was assessed by spread plating between […] cfu of a freshly-grown culture of the strain of interest on plates containing a concentration of compound corresponding to 4 times the MIC of the strain (as determined by agar-dilution MIC). Serial dilutions of the same cultures were plated on non-selective media to determine the number of cells plated. The frequency of resistance was determined by dividing the number of colonies obtained on the selective plates after 24 hours of growth by the calculated total population plated. Typically 4 independently grown cultures were used to initiate 4 separate experiments, and the total combined number of obtained colonies and plated populations were used for calculations. Isolated colonies from selection plates were re-streaked on an additional plate containing the same concentration of compound used in the original selection. Clones were saved at -80 °C for subsequent analysis.
Whole-genome sequencing and data analysis. Genomic DNA of selected clones was prepared using an Epicentre MasterPure Complete DNA Purification Kit. Whole-genome sequencing libraries were prepared using an Illumina Nextera XT Library Preparation Kit. The libraries were sequenced using an Illumina MiSeq device with a V3 600-cycle reagent kit. Whole-genome sequencing data was analyzed using CLC Genomics Workbench Version 11. To determine the genotype of MDR strains from the ENABLE strain collection, de novo assembled contigs were […]

Test [3] has as its system P. mirabilis ATCC 7002 and tolC::Tn5-kan2 EN1490. The test is described as follows: MIC, P. mirabilis laboratory strains. It is filed as cell-based. Conditions: Proteus mirabilis. On the procedure: as §1, §2, §3
Strain construction. The efflux-defective P. mirabilis strain EN1490 was constructed using EZ-Tn5 <KAN-2> Transposome mutagenesis with TypeOne Restriction Inhibitor. Approximately 3000 independent clones were screened for increased susceptibility to chloramphenicol (8 mg/L), yielding 2 independent clones with insertions in the gene tolC. […]

[4] abbreviates: blood, read-out: ED50, blood, E. coli.
The mark [5] stands for this setting: peritoneal fluid, read-out: ED50, peritoneal fluid, E. coli.
The mark [6] stands for this setting: ATCC7002, read-out: MIC P. mirabilis ATCC 7002.
Setting [7] is: ATCC7002, read-out: MIC P. mirabilis EN1490.

The ED50 is the dose that gives a 50% effect, or the effect in half of the subjects. As a reminder, the MIC is the lowest concentration that inhibits growth of the organism. On to `Cc1cc(C#N)nc(N2CCN(S(=O)(=O)c3ccc(NC(=O)c4cc(CNCCCN)ccc4N(C)S(C)(=O)=O)cc3)CC2)n1.Cl.Cl` [EBL-3599], for which the ED50 in test [1] (setting [4]) was determined as 20 mg/kg. In addition, in test [1] (setting [5]), the ED50 worked out at 29.6 mg/kg. Besides, in test [1] (blood), the “1-log effective dose, blood, E. coli” value was 28.3 mg/kg; the “2-log effective dose, blood, E. coli” value is on record as 42.8 mg/kg; the “3-log effective dose, blood, E. coli” value stood at 63.4 mg/kg. Besides, in test [1] (peritoneal fluid), the “1-log effective dose, peritoneal fluid, E. coli” value amounted to 45.9 mg/kg and the “2-log effective dose, peritoneal fluid, E. coli” value is 70.0 mg/kg. Besides, in test [2], the MIC EN0006 amounted to 1 µg/mL, the MIC CH10218 worked out at 64 µg/mL, the MIC CH10206 is greater than 64 µg/mL and the MIC CH10220 is greater than 64 µg/mL. For the same molecule, in test [2], the MIC CH10205 came out at 32 µg/mL, the MIC CH10207 came out at 32 µg/mL, the MIC CH10221 was greater than 64 µg/mL and the MIC CH10219 was 8 µg/mL. Moreover, in test [3] (setting [6]), the MIC is greater than 64 µg/mL. In addition, in test [3] (setting [7]), the MIC was found to be 4 µg/mL.

`Cc1cc(C#N)nc(N2CCN(S(=O)(=O)c3ccc(NC(=O)c4cc(CN5CC(CN)C5)ccc4N(C)S(C)(=O)=O)cc3)CC2)n1` [EBL-3647]: in test [1] (setting [4]), the ED50 was 12.3 mg/kg. In addition, in test [1] (setting [5]), the ED50 turned out to be 13.6 mg/kg. Moreover, in test [1] (blood), the “1-log effective dose, blood, E. coli” value amounted to 14.5 mg/kg; the “2-log effective dose, blood, E. coli” value came out at 19.6 mg/kg; the “3-log effective dose, blood, E. coli” value is 27.6 mg/kg. Besides, in test [1] (peritoneal fluid), the “1-log effective dose, peritoneal fluid, E. coli” value turned out to be 20.8 mg/kg and the “2-log effective dose, peritoneal fluid, E. coli” value is recorded as 31.2 mg/kg. For the same molecule, in test [2], the MIC EN0006 was found to be 1 µg/mL, the MIC CH10218 stood at 32 µg/mL, the MIC CH10206 is greater than 64 µg/mL and the MIC CH10220 was greater than 64 µg/mL. Also, in test [2], the MIC CH10205 amounted to 32 µg/mL, the MIC CH10207 amounted to 32 µg/mL, the MIC CH10221 is greater than 64 µg/mL and the MIC CH10219 came out at 8 µg/mL. For the same molecule, the MIC in test [3] (setting [6]) is greater than 64 µg/mL. Also, the MIC in test [3] (setting [7]) was found to be 16 µg/mL (≈ 24 µM).
